IC50 data for 11 compounds are collected here from patent US8637518B2, “Pyridazinone derivatives” (MERCK PATENT GmbH, priority 2008, dated 2014).

For the assay, the target named is T1, Met kinase (Homo sapiens, UniProt P08581).
T1 construct: 6His (N); purchased Upstate 14-526; host or cells: Sf21 insect cells (S. frugiperda), baculovirus
In words: Met kinase inhibition, enzyme assay (flashplate method). It counts as biochemical. From the text:
According to the manufacturer's data (Met, active, upstate, catalogue No. 14-526), Met kinase is expressed for the purposes of protein production in insect cells (Sf21; S. frugiperda) and subsequent affinity-chromatographic purification as “N-terminal 6His-tagged” recombinant human protein in a baculovirus expression vector.
The test plates used are 96-well Flashplate® microtitre plates from Perkin Elmer (Cat. No. SMP200). The components of the kinase reaction described below are pipetted into the assay plate. The Met kinase and the substrate poly Ala-Glu-Lys-Tyr, (pAGLT, 6:2:5:1), are incubated for 3 hrs at room temperature with radioactively labelled ^33P-ATP in the presence and absence of test substances in a total volume of 100 μl. The reaction is terminated using 150 μl of a 60 mM EDTA solution. After incubation for a further 30 min at room temperature, the supernatants are filtered off with suction, and the wells are washed three times with 200 μl of 0.9% NaCl solution each time. The measurement of the bound radioactivity is carried out by means of a scintillation measuring instrument (Topcount NXT, Perkin-Elmer).
The full value used is the inhibitor-free kinase reaction. This should be approximately in the range 6000-9000 cpm. The pharmacological zero value used is staurosporin in a final concentration of […]. The inhibitory values ([…]) are determined using the RS1_MTS program.
Kinase reaction conditions per well:
• 30 μl of assay buffer • 10 μl of substance to be tested in assay buffer with 10% of DMSO • 10 μl of ATP (final concentration 1 μM cold, 0.35 μCi of ^33P-ATP) • 50 μl of Met kinase/substrate mixture in assay buffer; • (10 ng of enzyme/well, 50 ng of pAGLT/well)
Solutions used: • Assay buffer:
50 mM HEPES • 3 mM magnesium chloride • 3 μM sodium orthovanadate • 3 mM manganese(II) chloride • 1 mM dithiothreitol (DTT)
pH=7.5 (to be set using sodium hydroxide) • Stop solution:
60 mM Titriplex III (EDTA) • ^33P-ATP: Perkin-Elmer; • Met kinase: Upstate, Cat. No. 14-526, Stock 1 μg/10 μl; spec. activity 954 U/mg; • Poly-Ala-Glu-Lys-Tyr, 6:2:5:1: Sigma Cat. No. P1152 In-vivo tests

T1 sequence (P08581 974-1390 limits assumed): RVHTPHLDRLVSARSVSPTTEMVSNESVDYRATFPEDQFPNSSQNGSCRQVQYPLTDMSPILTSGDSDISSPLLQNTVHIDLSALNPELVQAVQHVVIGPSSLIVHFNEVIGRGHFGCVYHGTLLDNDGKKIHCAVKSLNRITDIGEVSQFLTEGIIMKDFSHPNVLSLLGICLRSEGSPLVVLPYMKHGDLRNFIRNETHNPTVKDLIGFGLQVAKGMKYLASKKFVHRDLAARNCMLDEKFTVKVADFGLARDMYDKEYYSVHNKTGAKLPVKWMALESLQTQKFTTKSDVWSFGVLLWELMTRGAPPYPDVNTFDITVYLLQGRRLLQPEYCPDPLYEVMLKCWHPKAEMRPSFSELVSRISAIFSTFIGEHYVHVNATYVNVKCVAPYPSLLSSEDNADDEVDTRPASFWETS

As a reminder, the IC50 is the point on the concentration scale where inhibition reaches its midpoint. Read a high IC50 as weaker potency in that assay. Turning to `CO[C@@H](C)[C@H](N)C(=O)NCCOc1cnc(-c2cccc(Cn3nc(-c4cnn(C)c4)ccc3=O)c2)nc1` [Compound A1, (2S,3S)-2-amino-3-methoxy-N-[2-(2-{3-[3-(1-methyl-1H-pyrazol-4-yl)-6-oxo-6H-pyridazin-1-ylmethyl]phenyl}pyrimidin-5-yloxy)ethyl]-butyramide], the IC50 fell in the range of 10 to 1000 nM.

The compound `Cn1cc(-c2ccc(=O)n(Cc3cccc(-c4ncc(OCCNC(=O)[C@@H]5C[C@@H](O)CN5)cn4)c3)n2)cn1` [Compound A2, N-[2-(2-{3-[3-(1-Methyl-1H-pyrazol-4-yl)-6-oxo-6H-pyridazin-1-ylmethyl]-phenyl}pyrimidin-5-yloxy)ethyl]-(2S,4R)-4-hydroxypyrrolidine-2-carboxamide] returned an IC50 of 10 to 1000 nM.

In turn, `Cn1cc(-c2ccc(=O)n(Cc3cccc(-c4ncc(OCCNC(=O)[C@@H]5CCCN5)cn4)c3)n2)cn1` [Compound A3] had an IC50 of 10 to 1000 nM.

In turn, `N#Cc1cccc(-c2ccc(=O)n(Cc3cccc(-c4ncc(OCCNC(=O)[C@@H]5C[C@@H](O)CN5)cn4)c3)n2)c1` [Compound A4, N-[2-(2-{3-[3-(3-Cyanophenyl)-6-oxo-6H-pyridazin-1-ylmethyl]phenyl}-pyrimidin-5-yloxy)ethyl]-(2S,4R)-4-hydroxypyrrolidine-2-carboxamide] displayed an IC50 of 10 to 1000 nM.

In turn, `N#Cc1cccc(-c2ccc(=O)n(Cc3cccc(-c4ncc(OCCNC(=O)[C@@H]5CCCN5)cn4)c3)n2)c1` [Compound A5, N-[2-(2-{3-[3-(3-Cyanophenyl)-6-oxo-6H-pyridazin-1-ylmethyl]phenyl}-pyrimidin-5-yloxy)ethyl]-(S)-pyrrolidine-2-carboxamide] returned an IC50 of 10 to 1000 nM.

In turn, `CO[C@@H](C)[C@H](N)C(=O)NCCOc1cnc(-c2cccc(Cn3nc(-c4cccc(C#N)c4)ccc3=O)c2)nc1` [Compound A6, (2S,3S)-2-Amino-N-[2-(2-{3-[3-(3-cyanophenyl)-6-oxo-6H-pyridazin-1-yl-methyl]phenyl}pyrimidin-5-yloxy)ethyl]-3-methoxybutyramide] gave an IC50 of 10 to 1000 nM.

`CC(=O)N[C@H](C(=O)NCCOc1cnc(-c2cccc(Cn3nc(-c4cnn(C)c4)ccc3=O)c2)nc1)C(C)C` [Compound A7, (S)-2-acetylamino-3-methyl-N-[2-(2-{3-[3-(1-methyl-1H-pyrazol-4-yl)-6-oxo-6H-pyridazin-1-ylmethyl]phenyl}pyrimidin-5-yloxy)ethyl]-butyramide] displayed a half-inhibitory concentration (IC50) of 10 to 1000 nM.

As to `CC(=O)N[C@H](C(=O)NCCOc1cnc(-c2cccc(Cn3nc(-c4cccc(C#N)c4)ccc3=O)c2)nc1)C(C)C` [Compound A8, (S)-2-acetylamino-N-[2-(2-{3-[3-(3-cyanophenyl)-6-oxo-6H-pyridazin-1-yl-methyl]phenyl}pyrimidin-5-yloxy)ethyl]-3-methylbutyramide], the IC50 was 10 to 1000 nM.

Consider `N#Cc1cccc(-c2ccc(=O)n(Cc3cccc(-c4ncc(O[C@@H]5CN[C@H](C(=O)O)C5)cn4)c3)n2)c1` [Compound A10, (2S,4S)-4-(2-{3-[3-(3-cyanophenyl)-6-oxo-6H-pyridazin-1-yl-methyl]phenyl}pyrimidin-5-yloxy)pyrrolidine-2-carboxylic acid], for which the IC50 lay in the range of 10 to 1000 nM.

For `Cn1cc(-c2ccc(=O)n(Cc3cccc(-c4ncc(OCCC[C@H](N)C(=O)O)cn4)c3)n2)cn1` [Compound A11, (S)-2-Amino-5-(2-{3-[3-(1-methyl-1H-pyrazol-4-yl)-6-oxo-6H-pyridazin-1-yl-methyl]phenyl}pyrimidin-5-yloxy)pentanoic acid], the 50% inhibitory concentration (IC50) was in the range of 10 to 1000 nM.

In the case of `CN(C)CC1CCC(COc2cnc(-c3cccc(Cn4nc(-c5cnn(C)c5)ccc4=O)c3)nc2)CC1` (centres unmarked) [Compound A13, 2-{3-[5-(4-dimethylaminomethylcyclohexylmethoxy)pyrimidin-2-yl]benzyl}-6-(1-methyl-1H-pyrazol-4-yl)-2H-pyridazin-3-one], the IC50 is 10 to 1000 nM.
